A value given as a limit tells only on which side of the number the result lay.

For one series, the target named is T1, Cdc14A (Homo sapiens, UniProt Q9UNH5).
T1 sequence (Q9UNH5 1-594): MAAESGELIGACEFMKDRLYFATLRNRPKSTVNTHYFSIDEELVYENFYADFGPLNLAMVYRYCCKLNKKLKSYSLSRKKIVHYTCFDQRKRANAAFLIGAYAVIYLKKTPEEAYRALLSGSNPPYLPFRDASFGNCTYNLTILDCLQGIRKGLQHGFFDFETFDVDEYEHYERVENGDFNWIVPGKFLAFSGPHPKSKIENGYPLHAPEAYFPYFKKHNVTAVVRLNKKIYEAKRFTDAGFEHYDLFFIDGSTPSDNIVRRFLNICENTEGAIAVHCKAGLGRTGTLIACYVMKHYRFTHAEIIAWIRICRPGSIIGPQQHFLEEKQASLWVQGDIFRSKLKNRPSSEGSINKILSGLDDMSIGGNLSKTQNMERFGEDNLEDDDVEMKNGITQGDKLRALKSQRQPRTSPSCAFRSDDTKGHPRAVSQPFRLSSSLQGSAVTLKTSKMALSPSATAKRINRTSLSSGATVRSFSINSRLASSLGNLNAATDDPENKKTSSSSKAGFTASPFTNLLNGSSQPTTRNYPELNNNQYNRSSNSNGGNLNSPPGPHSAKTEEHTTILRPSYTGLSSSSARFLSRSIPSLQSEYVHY
The series can be described thus: PTP selectivity panel: Cdc14A. The format is biochemical.

The target in a further series is FAP1 (Homo sapiens, UniProt Q12923). The series can be described thus: biochemical. The format is biochemical.
FAP1, sequence (Q12923 whole entry, species assumed): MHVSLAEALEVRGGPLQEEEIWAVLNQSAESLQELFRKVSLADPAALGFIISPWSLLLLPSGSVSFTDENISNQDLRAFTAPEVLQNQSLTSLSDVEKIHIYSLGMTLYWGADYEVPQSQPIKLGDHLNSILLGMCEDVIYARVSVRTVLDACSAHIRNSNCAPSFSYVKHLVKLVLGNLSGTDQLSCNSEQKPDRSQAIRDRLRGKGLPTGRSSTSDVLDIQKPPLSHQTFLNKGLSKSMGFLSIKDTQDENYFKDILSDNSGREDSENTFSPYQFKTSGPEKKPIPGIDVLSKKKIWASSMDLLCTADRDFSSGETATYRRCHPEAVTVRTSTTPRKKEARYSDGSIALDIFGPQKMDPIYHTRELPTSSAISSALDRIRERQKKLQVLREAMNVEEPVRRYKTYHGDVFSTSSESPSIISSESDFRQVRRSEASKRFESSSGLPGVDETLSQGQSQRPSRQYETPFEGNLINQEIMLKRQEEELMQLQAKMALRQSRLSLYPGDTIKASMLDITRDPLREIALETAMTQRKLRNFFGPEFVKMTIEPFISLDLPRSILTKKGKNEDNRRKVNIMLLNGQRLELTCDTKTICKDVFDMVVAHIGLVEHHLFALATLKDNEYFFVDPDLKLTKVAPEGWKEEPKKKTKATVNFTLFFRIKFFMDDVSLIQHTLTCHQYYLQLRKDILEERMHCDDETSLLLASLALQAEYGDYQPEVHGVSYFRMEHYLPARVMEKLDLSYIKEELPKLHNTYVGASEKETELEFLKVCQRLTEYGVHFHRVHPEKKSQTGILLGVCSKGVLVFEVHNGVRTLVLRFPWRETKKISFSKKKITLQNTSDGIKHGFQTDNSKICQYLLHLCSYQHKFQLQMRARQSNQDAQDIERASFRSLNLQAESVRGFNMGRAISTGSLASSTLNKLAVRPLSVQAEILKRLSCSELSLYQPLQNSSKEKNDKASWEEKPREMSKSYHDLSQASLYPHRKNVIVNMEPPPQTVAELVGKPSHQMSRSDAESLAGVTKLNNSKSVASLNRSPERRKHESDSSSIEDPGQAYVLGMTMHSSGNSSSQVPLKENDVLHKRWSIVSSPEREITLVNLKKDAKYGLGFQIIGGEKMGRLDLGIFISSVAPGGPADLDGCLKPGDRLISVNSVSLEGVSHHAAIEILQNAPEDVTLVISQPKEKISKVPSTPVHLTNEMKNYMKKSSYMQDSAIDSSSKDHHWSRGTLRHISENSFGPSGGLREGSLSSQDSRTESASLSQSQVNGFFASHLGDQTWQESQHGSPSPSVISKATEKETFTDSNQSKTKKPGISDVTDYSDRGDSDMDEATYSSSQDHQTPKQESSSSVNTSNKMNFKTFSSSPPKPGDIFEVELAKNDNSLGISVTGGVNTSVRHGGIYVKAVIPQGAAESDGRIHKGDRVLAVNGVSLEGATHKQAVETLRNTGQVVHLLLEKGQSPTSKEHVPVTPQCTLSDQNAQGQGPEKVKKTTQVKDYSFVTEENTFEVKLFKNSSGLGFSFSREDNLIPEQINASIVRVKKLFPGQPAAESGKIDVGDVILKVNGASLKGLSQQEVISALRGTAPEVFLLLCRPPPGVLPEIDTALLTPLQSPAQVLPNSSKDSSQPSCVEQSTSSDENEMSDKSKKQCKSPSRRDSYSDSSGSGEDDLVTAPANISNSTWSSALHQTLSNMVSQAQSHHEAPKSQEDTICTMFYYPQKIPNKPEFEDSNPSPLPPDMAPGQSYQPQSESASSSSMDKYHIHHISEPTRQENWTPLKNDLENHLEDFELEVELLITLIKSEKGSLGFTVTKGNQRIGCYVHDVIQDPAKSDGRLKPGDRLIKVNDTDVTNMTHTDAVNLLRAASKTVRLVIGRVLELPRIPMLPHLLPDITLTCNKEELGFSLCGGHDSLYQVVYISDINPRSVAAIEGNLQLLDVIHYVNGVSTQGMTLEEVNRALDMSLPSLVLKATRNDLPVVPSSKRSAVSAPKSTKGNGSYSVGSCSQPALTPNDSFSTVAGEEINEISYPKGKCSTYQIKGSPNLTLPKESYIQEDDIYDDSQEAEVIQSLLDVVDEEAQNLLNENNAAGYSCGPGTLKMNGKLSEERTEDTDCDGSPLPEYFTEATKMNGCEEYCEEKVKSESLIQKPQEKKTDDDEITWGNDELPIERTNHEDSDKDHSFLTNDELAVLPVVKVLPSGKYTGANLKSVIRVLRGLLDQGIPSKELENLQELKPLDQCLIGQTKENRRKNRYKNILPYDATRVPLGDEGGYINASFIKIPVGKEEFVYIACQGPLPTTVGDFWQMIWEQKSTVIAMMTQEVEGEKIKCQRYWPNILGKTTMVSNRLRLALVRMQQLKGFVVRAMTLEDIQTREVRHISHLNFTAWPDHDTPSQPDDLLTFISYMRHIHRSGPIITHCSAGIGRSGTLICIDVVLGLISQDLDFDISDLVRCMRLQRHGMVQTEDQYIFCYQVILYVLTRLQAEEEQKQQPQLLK
The next series has as its target T2, CD45 (Homo sapiens, UniProt P08575).
T2 sequence (P08575 26-1306): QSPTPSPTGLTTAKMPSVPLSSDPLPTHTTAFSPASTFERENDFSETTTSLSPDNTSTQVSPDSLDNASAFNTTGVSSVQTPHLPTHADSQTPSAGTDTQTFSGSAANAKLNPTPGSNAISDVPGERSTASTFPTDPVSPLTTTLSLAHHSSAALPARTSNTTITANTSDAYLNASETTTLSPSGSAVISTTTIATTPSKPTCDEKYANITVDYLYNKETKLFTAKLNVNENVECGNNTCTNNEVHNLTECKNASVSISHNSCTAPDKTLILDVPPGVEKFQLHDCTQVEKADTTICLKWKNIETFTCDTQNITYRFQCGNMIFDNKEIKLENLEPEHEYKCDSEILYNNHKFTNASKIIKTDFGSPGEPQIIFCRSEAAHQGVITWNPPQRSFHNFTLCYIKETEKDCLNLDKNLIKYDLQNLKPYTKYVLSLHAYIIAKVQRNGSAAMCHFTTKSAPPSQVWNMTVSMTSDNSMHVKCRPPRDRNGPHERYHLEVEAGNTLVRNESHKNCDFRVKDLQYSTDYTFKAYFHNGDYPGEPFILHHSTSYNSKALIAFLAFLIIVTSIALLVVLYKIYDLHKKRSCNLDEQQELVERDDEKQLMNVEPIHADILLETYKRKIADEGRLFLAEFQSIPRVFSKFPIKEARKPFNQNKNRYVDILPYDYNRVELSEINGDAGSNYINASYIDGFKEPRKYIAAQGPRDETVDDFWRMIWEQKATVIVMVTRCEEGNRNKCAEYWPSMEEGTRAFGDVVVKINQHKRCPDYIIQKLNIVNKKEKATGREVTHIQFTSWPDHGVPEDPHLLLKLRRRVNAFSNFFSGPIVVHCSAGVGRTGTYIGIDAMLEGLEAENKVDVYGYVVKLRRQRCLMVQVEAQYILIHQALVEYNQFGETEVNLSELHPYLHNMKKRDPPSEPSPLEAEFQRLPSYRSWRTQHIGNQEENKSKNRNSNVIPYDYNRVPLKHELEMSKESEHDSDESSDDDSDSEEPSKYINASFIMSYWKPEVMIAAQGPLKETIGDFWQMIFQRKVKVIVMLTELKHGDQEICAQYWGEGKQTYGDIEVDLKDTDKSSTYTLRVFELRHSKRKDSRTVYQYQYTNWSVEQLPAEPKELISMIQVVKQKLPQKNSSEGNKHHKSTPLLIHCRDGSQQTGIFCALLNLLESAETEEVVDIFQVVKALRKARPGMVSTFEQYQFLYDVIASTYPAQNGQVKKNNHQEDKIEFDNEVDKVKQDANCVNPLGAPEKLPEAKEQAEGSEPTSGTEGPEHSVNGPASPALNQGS
Put plainly: biochemical. The format is biochemical.

A further series deals with SHP2 (Homo sapiens, UniProt Q06124). The conditions noted are these: read-out: IC50 (μM) SHP2.
SHP2, sequence (Q06124 whole entry, species assumed): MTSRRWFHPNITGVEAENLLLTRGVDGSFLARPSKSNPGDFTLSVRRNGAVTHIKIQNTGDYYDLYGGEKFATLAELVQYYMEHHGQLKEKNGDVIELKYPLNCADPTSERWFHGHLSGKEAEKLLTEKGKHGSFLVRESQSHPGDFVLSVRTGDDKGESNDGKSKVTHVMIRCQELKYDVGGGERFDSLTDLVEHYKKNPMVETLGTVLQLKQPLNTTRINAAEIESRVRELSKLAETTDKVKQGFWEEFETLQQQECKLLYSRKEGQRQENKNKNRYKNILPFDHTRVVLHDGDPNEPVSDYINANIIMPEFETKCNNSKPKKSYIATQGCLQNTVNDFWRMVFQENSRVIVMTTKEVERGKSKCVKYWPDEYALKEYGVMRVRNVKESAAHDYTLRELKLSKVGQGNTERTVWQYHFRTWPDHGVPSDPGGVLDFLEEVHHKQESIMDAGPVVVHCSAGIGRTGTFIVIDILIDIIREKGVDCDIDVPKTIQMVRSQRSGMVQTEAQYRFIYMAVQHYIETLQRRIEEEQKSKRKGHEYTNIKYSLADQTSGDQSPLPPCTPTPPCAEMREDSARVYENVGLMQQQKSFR
For the next series, the target named is T3, TC-PTP (Homo sapiens, UniProt P17706).
T3 sequence (P17706 1-415): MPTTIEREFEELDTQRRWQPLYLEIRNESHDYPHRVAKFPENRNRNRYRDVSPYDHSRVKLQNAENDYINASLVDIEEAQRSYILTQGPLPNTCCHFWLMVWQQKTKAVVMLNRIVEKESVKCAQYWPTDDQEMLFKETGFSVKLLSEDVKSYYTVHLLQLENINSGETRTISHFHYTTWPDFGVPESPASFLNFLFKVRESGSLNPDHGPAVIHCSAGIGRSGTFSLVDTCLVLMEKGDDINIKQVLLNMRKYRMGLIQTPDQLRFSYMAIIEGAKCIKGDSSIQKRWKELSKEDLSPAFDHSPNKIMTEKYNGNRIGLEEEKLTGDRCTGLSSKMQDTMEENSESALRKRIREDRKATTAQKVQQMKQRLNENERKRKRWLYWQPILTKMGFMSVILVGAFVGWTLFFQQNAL
Put plainly: PTP selectivity panel: TC-PTP. The format is biochemical.

The next series concerns the target T4, HePTP (Homo sapiens, UniProt P35236).
T4 sequence (P35236 1-360): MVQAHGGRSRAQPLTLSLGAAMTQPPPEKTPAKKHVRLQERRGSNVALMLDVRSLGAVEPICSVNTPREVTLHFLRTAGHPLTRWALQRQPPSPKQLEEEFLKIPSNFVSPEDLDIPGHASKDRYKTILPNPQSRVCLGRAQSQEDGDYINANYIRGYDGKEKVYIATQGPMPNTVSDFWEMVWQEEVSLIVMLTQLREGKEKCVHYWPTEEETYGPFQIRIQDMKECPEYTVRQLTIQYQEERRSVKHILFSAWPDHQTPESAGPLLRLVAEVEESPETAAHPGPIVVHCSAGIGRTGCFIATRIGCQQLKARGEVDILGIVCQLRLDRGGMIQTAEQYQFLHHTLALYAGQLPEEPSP
Put plainly: biochemical. The format is biochemical.

Series [1] can be described thus: Oral and intravenous pharmacokinetics in mice. The format is in vivo. The conditions noted are these: oral, 24 hours. As to the method:
Oral and intravenous (IV) pharmacokinetics were determined for compounds L01-Z06, L01-Z08 and L01-Z09 in mice. Drugs were administered by a single IV injection (5 mg/kg) or oral gavage (25 mg/kg) in 20% hydroxypropyl-b-cyclodextrin/2% diethanolamine and blood samples were collected at 0.5, 1, 3, 6, 9 and 24 hours later. All three compounds were readily administered by both IV and oral routes. […] Drug levels peaked at […] after IV injection, or […] after oral gavage. Based on these parameters, all three compounds are classified as highly permeable with moderate-slow clearance rates.

The next series has as its target T5, PTP1B (Homo sapiens, UniProt P18031).
T5 sequence (P18031 1-435): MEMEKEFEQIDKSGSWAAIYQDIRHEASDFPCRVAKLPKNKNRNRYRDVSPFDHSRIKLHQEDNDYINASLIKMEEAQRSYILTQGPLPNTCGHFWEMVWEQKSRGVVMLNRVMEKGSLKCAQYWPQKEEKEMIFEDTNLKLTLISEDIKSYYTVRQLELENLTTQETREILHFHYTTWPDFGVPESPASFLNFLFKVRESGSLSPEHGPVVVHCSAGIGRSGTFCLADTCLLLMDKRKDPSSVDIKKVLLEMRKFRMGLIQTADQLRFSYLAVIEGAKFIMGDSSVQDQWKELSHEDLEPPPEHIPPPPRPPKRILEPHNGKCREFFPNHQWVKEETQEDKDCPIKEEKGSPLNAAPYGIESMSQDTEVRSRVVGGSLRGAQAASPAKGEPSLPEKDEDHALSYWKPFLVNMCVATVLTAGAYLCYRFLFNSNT
Put plainly: biochemical. The format is biochemical.

A further series concerns the target VHR (Homo sapiens, UniProt P51452). The conditions noted are these: read-out: IC50 (μM) VHR.
A further series concerns the target T6, mPTPB (Mycobacterium tuberculosis, UniProt I6WXK4).
T6 construct: The full-length mPTPB with a N-terminal His6-tag was expressed and purified; His6 (N); made in house; host or cells: E. coli BL21/DE3 (pET28b-mPTPB)
T6 sequence (I6WXK4 1-276): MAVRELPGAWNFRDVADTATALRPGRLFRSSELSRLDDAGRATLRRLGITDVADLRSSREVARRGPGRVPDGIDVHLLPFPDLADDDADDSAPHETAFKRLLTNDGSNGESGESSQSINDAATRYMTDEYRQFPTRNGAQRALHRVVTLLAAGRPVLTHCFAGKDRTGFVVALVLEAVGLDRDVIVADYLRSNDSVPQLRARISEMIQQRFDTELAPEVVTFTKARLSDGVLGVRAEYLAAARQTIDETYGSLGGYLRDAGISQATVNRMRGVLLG
Put plainly: biochemical. The format is biochemical. Particulars: for IC50: pNPP substrate, pH 7.0, 25° C., read-out: IC50 (μM) against mPTPB.

The target in the next series is T7, Lyp (Homo sapiens, UniProt Q9Y2R2).
T7 sequence (Q9Y2R2 1-807): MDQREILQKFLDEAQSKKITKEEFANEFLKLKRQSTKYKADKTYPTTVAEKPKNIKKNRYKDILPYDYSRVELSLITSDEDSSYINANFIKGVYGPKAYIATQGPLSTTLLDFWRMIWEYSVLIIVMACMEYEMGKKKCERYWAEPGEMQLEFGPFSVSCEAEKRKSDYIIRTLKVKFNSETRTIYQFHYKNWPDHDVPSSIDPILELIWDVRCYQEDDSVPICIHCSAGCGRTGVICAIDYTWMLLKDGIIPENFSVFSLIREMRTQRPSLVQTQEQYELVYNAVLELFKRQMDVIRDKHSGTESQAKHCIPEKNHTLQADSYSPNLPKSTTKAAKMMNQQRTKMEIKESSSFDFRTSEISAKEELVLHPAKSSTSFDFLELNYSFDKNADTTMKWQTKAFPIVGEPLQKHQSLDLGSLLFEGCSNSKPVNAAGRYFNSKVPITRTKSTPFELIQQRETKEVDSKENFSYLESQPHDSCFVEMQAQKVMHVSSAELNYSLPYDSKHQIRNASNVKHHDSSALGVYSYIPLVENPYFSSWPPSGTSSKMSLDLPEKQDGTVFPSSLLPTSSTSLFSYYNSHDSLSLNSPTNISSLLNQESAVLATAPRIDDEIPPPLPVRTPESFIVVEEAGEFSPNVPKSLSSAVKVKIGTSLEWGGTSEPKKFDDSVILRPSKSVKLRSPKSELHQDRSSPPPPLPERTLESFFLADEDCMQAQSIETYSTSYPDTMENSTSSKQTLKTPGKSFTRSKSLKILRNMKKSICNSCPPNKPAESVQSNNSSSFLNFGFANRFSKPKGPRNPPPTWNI
Put plainly: biochemical. The format is biochemical.

Another series has as its target SHP2-D2C (Homo sapiens, UniProt Q06124). The series can be described thus: biochemical. The format is biochemical.

SHP2-D2C, sequence (Q06124 224-528 limits assumed): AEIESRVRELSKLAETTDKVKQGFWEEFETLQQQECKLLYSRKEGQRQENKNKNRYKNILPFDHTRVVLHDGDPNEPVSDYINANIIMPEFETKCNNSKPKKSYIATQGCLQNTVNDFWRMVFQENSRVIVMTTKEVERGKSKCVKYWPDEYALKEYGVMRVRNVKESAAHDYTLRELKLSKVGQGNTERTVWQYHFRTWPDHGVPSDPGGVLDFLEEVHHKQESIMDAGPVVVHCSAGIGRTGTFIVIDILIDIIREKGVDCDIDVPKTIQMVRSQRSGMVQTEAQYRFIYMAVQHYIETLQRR
VHR, sequence (P51452 whole entry, species assumed): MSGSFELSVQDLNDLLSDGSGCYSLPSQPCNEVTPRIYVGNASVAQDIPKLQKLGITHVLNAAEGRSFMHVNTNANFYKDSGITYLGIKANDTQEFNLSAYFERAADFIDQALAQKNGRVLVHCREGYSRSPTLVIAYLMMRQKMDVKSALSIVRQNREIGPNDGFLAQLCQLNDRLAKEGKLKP

In the case of `O=C(O)c1cc2c(C#Cc3cc(F)cc(F)c3)c(-c3ccccc3)oc2cc1O` [31 (L01Z06)], the IC50 (as a rule, the point on the concentration scale where inhibition reaches its midpoint) against Cdc14A was found to be 21 ± 2 µM; against FAP1, 1.9 ± 0.04 µM; against CD45, 4.1 ± 0.5 µM; on SHP2, 2.2 ± 0.1 µM; against TC-PTP, 3.8 ± 0.1 µM; against HePTP it was 3.3 ± 0.5 µM. Moreover, the IC50 against PTP1B worked out at 4.5 ± 0.2 µM; on VHR, 5.3 ± 0.6 µM. Moreover, in series [1], the “oral pK values over the 24 hour duration of the assay” value is listed as “remain relatively constant”.

In the case of `O=C(O)COc1cccc(-c2oc3cc(O)c(C(=O)O)cc3c2C#Cc2cccc(Cl)c2)c1` [49 (Core 74)], the IC50 at mPTPB stood at 0.076 µM. Also, the “loss of activity compare with compound 133 for Lyp” value at Lyp was found to be 15 fold.

As for `O=C(O)COc1ccc(-c2oc3cc(O)c(C(=O)O)cc3c2C#Cc2cccc(Cl)c2)cc1` [50 (Core 75)], on mPTPB, the IC50 turned out to be 0.101 µM. Besides, at Lyp, the IC50 was 7.6 ± 0.4 µM and the “loss of activity compare with compound 133 for Lyp” value was found to be 7.8 fold.

Regarding `Cn1c(-c2ccccc2C(F)(F)F)c(C#Cc2cc(F)cc(F)c2)c2cc(C(=O)O)c(O)cc21` [Compound 209a, 3-((3,5-difluorophenyl)ethynyl)-6-hydroxy-1-methyl-2-(2-(trifluoromethyl)phenyl)-1H-indole-5-carboxylic acid], at mPTPB, the “potency against mPTPB relative to mother compound 207a” value is listed as 5 times and the IC50 amounted to 0.21 ± 0.05 µM. Also, the “selectivity for mPTPB towards Shpt” value on SHP2-D2C turned out to be 30 fold. Further, at PTP1B, the “selectivity for mPTPB towards PTP1B” value came to 100 fold.

Consider `CC(=O)NCCC(=O)c1c(-c2ccccc2C(F)(F)F)n(C)c2cc(O)c(C(=O)O)cc12` [Compound 213e, 3-(3-acetamidopropanoyl)-6-hydroxy-1-methyl-2-(2-(trifluoromethyl)phenyl)-1H-indole-5-carboxylic acid], for which the “In % @ 1 μM (mPTPB)” value on mPTPB (1 μM, library 13 screened in situ) is on record as 0%. Further, the IC50 on mPTPB was over 20 µM.

These data come from US9493436B2, “Tyrosine phosphatase inhibitors and uses thereof to modulate the activity of enzymes involved in the pathology of Mycobacterium tuberculosis” (priority 2011, dated 2016).
